Measurements from the supplement of paper PMC10307832.

Legend:
Experiment in all cases: relative viability (nuclei count vs DMSO), 5 days (fraction); higher = more cells survive
NCI-H2009 = system: NCI-H2009
Summary of the method: (§1)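 A single step with final 0.05% Triton X-100, 1% formaldehyde and 1 ug/ml Hoechst fixed the cells and stained nuclei 5 days after treatment. Lung cancer cell lines in 1536-well plates had been treated by pin tool the day after seeding with one drug alone or a fixed anchor-drug dose plus five library-drug doses (not always all listed) in √10 steps, and nuclei were counted on 4× images. Relative viability is the ratio of nuclei in treated wells to nuclei in vehicle wells, taken as the median of duplicate plates.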

NCI-H1734 = system: NCI-H1734
Summary of the method: as §1

UMC-11 = system: UMC-11
Summary of the method: as §1

LC-2-ad = system: LC-2-ad
Summary of the method: as §1

HCC-366 = system: HCC-366
Summary of the method: as §1

NCI-H23 = system: NCI-H23
Summary of the method: as §1

EMC-BAC-2 = system: EMC-BAC-2
Summary of the method: as §1

HCC-15 = system: HCC-15
Summary of the method: as §1

HARA = system: HARA
Summary of the method: as §1

HCC-78 = system: HCC-78
Summary of the method: as §1

COR-L23 = system: COR-L23
Summary of the method: as §1

NCI-H1793 = system: NCI-H1793
Summary of the method: as §1

## NC(=O)Nc1cc(-c2cccc(F)c2)sc1C(=O)N[C@H]1CCCNC1 [AZD7762] + Cc1nc(Nc2ncc(C(=O)Nc3c(C)cccc3Cl)s2)cc(N2CCN(CCO)CC2)n1 [Dasatinib] (partner 0.075 µM)
NCI-H2009; first compound 0.01 µM
  relative viability: 0.334
NCI-H2009; first compound 0.03162 µM
  relative viability: 0.287
NCI-H2009; first compound 0.1 µM
  relative viability: 0.342
NCI-H2009; first compound 0.3162 µM
  relative viability: 0.282
NCI-H2009; first compound 1 µM
  relative viability: 0.181
NCI-H1734; first compound 0.01 µM
  relative viability: 0.537
NCI-H1734; first compound 0.03162 µM
  relative viability: 0.542
NCI-H1734; first compound 0.1 µM
  relative viability: 0.493
NCI-H1734; first compound 0.3162 µM
  relative viability: 0.394
NCI-H1734; first compound 1 µM
  relative viability: 0.35
UMC-11; first compound 0.01 µM
  relative viability: 0.516
UMC-11; first compound 0.03162 µM
  relative viability: 0.447
UMC-11; first compound 0.1 µM
  relative viability: 0.407
UMC-11; first compound 0.3162 µM
  relative viability: 0.392
UMC-11; first compound 1 µM
  relative viability: 0.215
LC-2-ad; first compound 0.01 µM
  relative viability: 0.596
LC-2-ad; first compound 0.03162 µM
  relative viability: 0.513
LC-2-ad; first compound 0.1 µM
  relative viability: 0.374
LC-2-ad; first compound 0.3162 µM
  relative viability: 0.343
LC-2-ad; first compound 1 µM
  relative viability: 0.377
HCC-366; first compound 0.01 µM
  relative viability: 0.707
HCC-366; first compound 0.03162 µM
  relative viability: 0.625
HCC-366; first compound 0.1 µM
  relative viability: 0.659
HCC-366; first compound 0.3162 µM
  relative viability: 0.421
HCC-366; first compound 1 µM
  relative viability: 0.177
NCI-H23; first compound 0.01 µM
  relative viability: 0.961
NCI-H23; first compound 0.03162 µM
  relative viability: 0.832
NCI-H23; first compound 0.1 µM
  relative viability: 0.877
NCI-H23; first compound 0.3162 µM
  relative viability: 0.567
NCI-H23; first compound 1 µM
  relative viability: 0.313
EMC-BAC-2; first compound 0.01 µM
  relative viability: 0.373
EMC-BAC-2; first compound 0.03162 µM
  relative viability: 0.37
EMC-BAC-2; first compound 0.1 µM
  relative viability: 0.359
EMC-BAC-2; first compound 0.3162 µM
  relative viability: 0.346
EMC-BAC-2; first compound 1 µM
  relative viability: 0.322
HCC-15; first compound 0.01 µM
  relative viability: 0.582
HCC-15; first compound 0.03162 µM
  relative viability: 0.592
HCC-15; first compound 0.1 µM
  relative viability: 0.592
HCC-15; first compound 0.3162 µM
  relative viability: 0.561
HCC-15; first compound 1 µM
  relative viability: 0.52
HARA; first compound 0.01 µM
  relative viability: 0.306
HARA; first compound 0.03162 µM
  relative viability: 0.304
HARA; first compound 0.1 µM
  relative viability: 0.275
HARA; first compound 0.3162 µM
  relative viability: 0.286
HARA; first compound 1 µM
  relative viability: 0.164
HCC-78; first compound 0.01 µM
  relative viability: 0.409
HCC-78; first compound 0.03162 µM
  relative viability: 0.606
HCC-78; first compound 0.1 µM
  relative viability: 0.451
HCC-78; first compound 0.3162 µM
  relative viability: 0.353
HCC-78; first compound 1 µM
  relative viability: 0.232
COR-L23; first compound 0.01 µM
  relative viability: 0.477
COR-L23; first compound 0.03162 µM
  relative viability: 0.528
COR-L23; first compound 0.1 µM
  relative viability: 0.515
COR-L23; first compound 0.3162 µM
  relative viability: 0.313
COR-L23; first compound 1 µM
  relative viability: 0.0945
NCI-H1793; first compound 0.01 µM
  relative viability: 0.408
NCI-H1793; first compound 0.03162 µM
  relative viability: 0.388
